Source: US20210093645A1, “COMBINATION ANTI CANCER THERAPY WITH AN IAP ANTAGONIST AND AN ANTI PD-1 MOLECULE” (Debiopharm International S.A., priority 2017, published 2021)
Entries after “also recorded” stand apart in the source; their conditions may differ. Numbered stars: 1 amine (or outer) side, 2 acyl side, 3 side chain; on linkers, the order of the positions; unused ones are H or OH. Bridge positions count the residues as written; N and C are the ends. Square brackets hold non-standard residues; d marks the D form. Peptide text beside a SMILES is read from it. I, II: the chains in the order shown. Hexamethylenediamine = C(CCCN[*:2])CCN[*:1]; Dip = N[C@H](C(=O)O)C(c1ccccc1)c1ccccc1; Chg = N[C@H](C(=O)O)C1CCCCC1; NMeA = CN[C@@H](C)C(=O)O

Legend:
antigen-presenting cells = conditions: cited from earlier work
[1] = tested on: syngeneic colon carcinoma cell line MC38; assay: MC38 syngeneic tumor model, Debio 1143 pretreatment then anti-PD-L1 (Example 2); assay type: in vivo, C57BL/6J mice
Experimental: Five groups (n=8) of adult female C57BL/6J mice (obtained from Shanghai Lingchang Bio-Technology Co.) were inoculated in the right lower flank with 1×10^6 cells of the syngeneic colon carcinoma cell line MC38. When average tumor size reached about 50 mm^3 (day 1), animals received either pretreatment consisting of p.o. SMAC mimetic Debio 1143 (Debiopharm) at a dose of 100 mg/kg or vehicle as indicated in Table 1. The dosing was repeated on each day for 7 days (day 1-7). On the subsequent day (day 8), animals of a vehicle-treated group and a Debio 1143-pretreated group were given i.p. 10 mg/kg of control antibody rlgG2b (Clone: LTF-2, BioXcell). Control antibody was administered twice weekly until the end of the study. Another set of two groups (vehicle- and Debio 1143-pretreated animals) received i.p. 10 mg/kg of anti-PD-L1 antibody (Mouse surrogate antibody, anti-mouse PD-L1, Clone: 10F.9G2, BioXcell). Administration was repeated twice weekly as for the control antibody. A final group of Debio 1143-pretreated animals received both anti-PD-L1 antibody as well as was continued on daily Debio 1143. Tumor volumes and body weights were assessed trice weekly. Tumor size was measured in two dimensions using a caliper, and the volume was expressed in mm^3 using the formula: V=0.5 a×b^2 where a and b are the long and short diameters of the tumor, respectively.

[2] = tested on: syngeneic colon carcinoma cell line CT26; assay: CT26 syngeneic tumor model, Debio 1143 pretreatment then anti-PD-1 (Example 4); assay type: in vivo, BALB/c mice
Experimental: Five groups (n=8) of adult female BALB/c mice (obtained from Shanghai Lingchang Bio-Technology Co.) were inoculated in the right lower flank with 0.5×10^6 cells of the syngeneic colon carcinoma cell line CT26. When average tumor size reached about 50 mm^3 (day 1), animals received either pretreatment consisting of p.o. SMAC mimetic Debio 1143 (Debiopharm) at a dose of 100 mg/kg or vehicle as indicated in Table 3a. The dosing was repeated on each day for 7 days (day 1-7). […] Another set of two groups (vehicle- and Debio 1143-pretreated animals) received biweekly i.p. 10 mg/kg of anti-PD-1 antibody (Mouse surrogate antibody, anti-mouse PD-1, Clone: RMP1-14, BioXcell). A final group of Debio 1143-pretreated animals received both anti-PD-1 antibody as well as was continued on daily Debio 1143. Tumor volumes and body weights were assessed trice weekly. Tumor size was measured in two dimensions using a caliper, and the volume was expressed in mm^3 using the formula: V=0.5 a×b^2 where a and b are the long and short diameters of the tumor, respectively.

CD8+ T-lymphocytes = assay: immunohistochemistry of tumor biopsies before and after Debio 1143, CD8 staining; assay type: in vivo, human; conditions: head & neck cancer patients, n=12; 200 mg Debio 1143 p.o. daily day 1 to 15; biopsy after vs before treatment
Experimental: (§1) The study enrolled adult patients with newly diagnosed histologically proven squamous cell carcinoma of the oral cavity, oropharynx, hypopharynx or larynx. During a screening period of two weeks (days −14 to −1), a tumor biopsy was taken and analyzed. Treatment was from day 1 to day 15 (+/−2 days) and consisted (in one arm) of daily administration p.o. of 200 mg Debio 1143. At the end of this treatment period, a second tumor biopsy was taken and analyzed, and the patients underwent surgery. T cells were identified using CD3 rabbit mAb 2GV6 from Ventana Roche (provided as a ready-to-use solution). Slides were processed on a Ventana Benchmark Ultra automaton. Exposure to antibody was 20 min. Pretreatment of the slides (64 min) was with cell conditioning solution CC1 (Ventana); the Optiview system (Ventana) (chromogen: DAB) was employed for visualization of the signal. Staining of CD8 and CD4 T cells was by the same protocol. The CD8 antibody was the SP57 rabbit mAb, and the CD4 antibody was the SP35 rabbit mAb. Both antibodies were from Ventana Roche and were provided as ready-to-use solutions. The antibody selected for PD-1 detection was the NAT105 mouse mAb that was also provided as a ready-to-use solution (Cell Marque). The protocol for PD-1 detection was the same as that used for CD3 staining, except that antibody exposure and pretreatment times were each 16 min.

PD-L1 = assay: immunohistochemistry of tumor biopsies before and after Debio 1143, PD-L1 staining; assay type: in vivo, human; conditions: head & neck cancer patients, n=12; 200 mg Debio 1143 p.o. daily day 1 to 15; biopsy after vs before treatment
Experimental: (§2) The study enrolled adult patients with newly diagnosed histologically proven squamous cell carcinoma of the oral cavity, oropharynx, hypopharynx or larynx. During a screening period of two weeks (days −14 to −1), a tumor biopsy was taken and analyzed. Treatment was from day 1 to day 15 (+/−2 days) and consisted (in one arm) of daily administration p.o. of 200 mg Debio 1143. At the end of this treatment period, a second tumor biopsy was taken and analyzed, and the patients underwent surgery. Biopsies were analyzed by immunohistochemical methods. Staining for cIAP1 was carried out using a Dako autostainer automaton (Agilent). The EPR4673 […] mAb (Abcam) was utilized at a 1/100 dilution, and tissue slides were exposed to the antibody for 20 min. Pretreatment of the slides was with EnVision FLEX Target Retrieval Solution, Low pH; the EnVision FLEX system (chromogen: DAB) was employed for visualization of the signal. EnVision Flex system and reagent were from Agilent. The same protocol was applied for PD-L1 staining. The E1 L3N rabbit mAb (Cell Signaling Technology) was used at a 1/500 dilution.

cIAP1 = biological target: T1, cIAP1 (Homo sapiens, UniProt Q13490); assay: immunohistochemistry of tumor biopsies before and after Debio 1143, cIAP1 staining; assay type: in vivo; conditions: head & neck cancer patients, n=12; 200 mg Debio 1143 p.o. daily day 1 to 15; biopsy after vs before treatment
T1 construct: from tissue; host or cells: tumor biopsies of patients with squamous cell carcinoma of the head and neck
Experimental: as §2

PD-1 = assay: immunohistochemistry of tumor biopsies before and after Debio 1143, PD-1 staining; assay type: in vivo, human; conditions: head & neck cancer patients, n=12; 200 mg Debio 1143 p.o. daily day 1 to 15; biopsy after vs before treatment
Experimental: as §1

CD4+ T-lymphocytes = assay: immunohistochemistry of tumor biopsies before and after Debio 1143, CD4 staining; assay type: in vivo, human; conditions: head & neck cancer patients, n=12; 200 mg Debio 1143 p.o. daily day 1 to 15; biopsy after vs before treatment
Experimental: as §1

[3] = in vivo; cited from earlier work
T-cell = conditions: in the context of a primary T-cell receptor stimulus; cited from earlier work
[4] = tested on: syngeneic colon carcinoma cell line MC-38; assay: MC38 syngeneic tumor model, birinapant or LCL161 pretreatment then anti-PD-L1 (Example 3); assay type: in vivo, C57BL/6J mice
Experimental: 72 adult female C57BL/6J mice (obtained from Shanghai Lingchang Bio-Technology Co.) were inoculated subcutaneously at the right lower flank with 1×10^6 cells of the syngeneic colon carcinoma cell line MC-38 in 0.1 ml of PBS. Tumor volumes were measured three times weekly in two dimensions using a caliper, and the volume was expressed in mm^3 using the formula: V=(L×W×W)/2, where V is tumor volume, L is tumor length (the longest tumor dimension) and W is tumor width (the longest tumor dimension perpendicular to L). All animals were randomly allocated to the 9 different study groups with a mean tumor size of 52 mm^3 based on the “Matched distribution” randomization method (StudyDirector™ software, version 3.1.399.19) and treatments started (denoted as day 1). Dosing as well as tumor and body weight measurement were conducted in a Laminar Flow Cabinet.
On day 1, part of the animals received either a 1 week pretreatment consisting of i.p. SMAC mimetic birinapant at a dose of 30 mg/kg, or its vehicle, in a biweekly schedule as indicated in Table 2. The other part of the animals received either a 1 week pretreatment consisting of p.o. SMAC mimetic LCL161 at a dose of 75 mg/kg, or its vehicle, in a biweekly schedule as indicated in Table 2.
On day 8, vehicle or SMAC mimetic pretreated animals were then further treated until study end with either biweekly i.p. 10 mg/kg of control antibody rlgG2b (Clone: LTF-2, BioXcell), or biweekly i.p. 10 mg/kg of anti-PD-L1 antibody (Mouse surrogate antibody, anti-mouse PD-L1, Clone: 10F.9G2, BioXcell). 1 group of animals that had received 1 week of birinapant pretreatment, and 1 group of animals that had received 1 week of LCL161 pretreatment, were each continued on the respective SMAC mimetic during the period of anti-PD-L1 treatment until study end.

melanoma = melanoma patients; cited from earlier work
[5] = tested on: advanced treatment-refractory NSCLC; conditions: advanced treatment-refractory NSCLC patients; cited from earlier work
RCC = RCC patients; cited from earlier work

T1 sequence (Q13490 whole entry): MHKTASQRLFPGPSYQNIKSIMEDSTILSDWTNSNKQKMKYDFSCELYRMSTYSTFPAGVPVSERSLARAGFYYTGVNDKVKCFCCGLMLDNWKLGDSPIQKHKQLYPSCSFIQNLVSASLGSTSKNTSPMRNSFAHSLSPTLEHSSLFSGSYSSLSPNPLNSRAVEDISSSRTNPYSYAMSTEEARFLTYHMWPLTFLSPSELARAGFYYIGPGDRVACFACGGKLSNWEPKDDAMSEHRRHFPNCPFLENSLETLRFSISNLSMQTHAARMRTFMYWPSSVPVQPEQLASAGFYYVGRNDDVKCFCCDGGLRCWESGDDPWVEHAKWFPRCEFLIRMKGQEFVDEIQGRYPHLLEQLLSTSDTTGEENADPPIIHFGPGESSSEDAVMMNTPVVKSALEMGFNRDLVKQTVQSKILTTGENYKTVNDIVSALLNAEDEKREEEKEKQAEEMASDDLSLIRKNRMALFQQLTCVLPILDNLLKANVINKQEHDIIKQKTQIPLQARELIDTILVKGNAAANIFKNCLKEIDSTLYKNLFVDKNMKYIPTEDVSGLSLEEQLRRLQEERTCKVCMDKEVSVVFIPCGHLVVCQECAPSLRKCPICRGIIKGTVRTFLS

In the case of CN[C@@H](C)C(=O)N[C@H](C(=O)N1CCC[C@H]1C(=O)N[C@H](C(=O)NCCCCCCNC(=O)[C@@H](NC(=O)[C@@H]1CCCN1C(=O)[C@@H](NC(=O)[C@H](C)NC)C1CCCCC1)C(c1ccccc1)c1ccccc1)C(c1ccccc1)c1ccccc1)C1CCCCC1 [BV6] (I: H-[NMeA][Chg]P[Dip] / II: H-[NMeA][Chg]P[Dip]; linker I:C-II:C via Hexamethylenediamine), the “function of antigen-presenting cells (dendritic cell maturation, type-II to type-I macrophage conversion)” value (antigen-presenting cells) is listed as “modulate the function of antigen-presenting cells”.
For CN[C@@H](C)C(=O)N[C@H]1CN(C(=O)CC(C)C)CC[C@H]2CC[C@@H](C(=O)NC(c3ccccc3)c3ccccc3)N2C1=O [Debio 1143], the “anti-cancer effect (median tumor volume)” value ([1]; Debio 1143 100 mg/kg p.o. QD day 1-7 pretreatment alone, then control antibody rlgG2b (group 2)) was “modest anti-cancer effect”, the “anti-cancer effect (median tumor volume)” value ([1]; Debio 1143 100 mg/kg p.o. QD day 1-7 pretreatment, then anti-PD-L1 10 mg/kg i.p. BIW (group 4)) was “profound anti-cancer effect; also recorded: sensitizes MC38 tumors to a subsequent treatment with an anti-PD-L1 antibody” and the “anti-cancer effect (median tumor volume)” value ([1]; Debio 1143 pretreatment day 1-7, then anti-PD-L1 plus continued daily Debio 1143 (group 5), compared with group 4) was “small additional benefit”. For the same compound, the “anti-cancer effect (median tumor volume)” value ([2]; Debio 1143 100 mg/kg p.o. QD day 1-7 pretreatment alone, then oral vehicle (group 3)) was “modest anti-cancer effect”, the “anti-cancer effect (median tumor volume)” value ([2]; Debio 1143 100 mg/kg p.o. QD day 1-7 pretreatment, then anti-PD-1 10 mg/kg i.p. BIW (group 4)) was “small additional benefit to Debio 1143 pretreatment alone; also recorded: sensitizes CT26 tumors to a subsequent treatment with an anti-PD-1 antibody” and the “anti-cancer effect (median tumor volume)” value ([2]; Debio 1143 pretreatment, then anti-PD-1 plus continued daily Debio 1143 (group 5)) was “significant additional benefit”. For the same compound, the “number of CD8+ T cells in the tumor microenvironment” value (CD8+ T-lymphocytes) was “increase in CD8+ T cell number being significant; also recorded: increases the number”, the “frequency / number of PD-L1-expressing tumor cells” value (PD-L1) was “also increased; also recorded: increases the number” and the “percentage / number of immune cells expressing PD-L1 in tumor” value (PD-L1) was “increased significantly; also recorded: increases the number”. The “levels of cIAP1 in the tumors” value (cIAP1) was “reduced levels of cIAP1 in the tumors of most patients; also recorded: induces the degradation of cIAP1”, the “percentage / number of immune cells expressing PD-1 in tumor” value (PD-1) was “increased significantly; also recorded: increases the number” and the “number of CD4+ T cells in the tumor microenvironment” value (CD4+ T-lymphocytes) was “both increased; also recorded: increases the number”.
For CN[C@@H](C)C(=O)N[C@H](C(=O)N1CC[C@H]2CCN(CCc3ccccc3)C[C@H]21)C1CCCCC1 [LBW242], the “efficacy in a prophylactic cancer vaccine model” value [3] is given as “enhanced efficacy” and the “anti-tumor immune responses (T-cell proliferation, co-stimulation, activation)” value (T-cell) is given as “increase anti-tumor immune responses”.
With CN[C@@H](C)C(=O)N[C@H](C(=O)N1CCC[C@H]1c1nc(C(=O)c2ccc(F)cc2)cs1)C1CCCCC1 [LCL161] the “anti-cancer effect (median tumor volume)” value ([4]; LCL161 75 mg/kg p.o. BIW 1 week pretreatment alone, then control antibody rlgG2b (group 7)) was “modest anti-cancer effect”, the “anti-cancer effect (median tumor volume)” value ([4]; LCL161 75 mg/kg p.o. BIW 1 week pretreatment, then anti-PD-L1 10 mg/kg i.p. BIW (group 8)) was “small additional benefit to LCL161 pretreatment alone; also recorded: sensitizes MC38 tumors to a subsequent treatment with an anti-PD-L1 antibody” and the “anti-cancer effect (median tumor volume)” value ([4]; LCL161 pretreatment, then anti-PD-L1 plus continued LCL161 (group 9)) was “significant additional benefit”.
With CC[C@H](NC(=O)[C@H](C)NC)C(=O)N1C[C@@H](O)C[C@H]1Cc1c(-c2[nH]c3cc(F)ccc3c2C[C@@H]2C[C@H](O)CN2C(=O)[C@H](CC)NC(=O)[C@H](C)NC)[nH]c2cc(F)ccc12 [birinapant] the “anti-cancer effect (median tumor volume)” value ([4]; birinapant 30 mg/kg i.p. BIW 1 week pretreatment alone, then control antibody rlgG2b (group 2)) was “modest anti-cancer effect”, the “anti-cancer effect (median tumor volume)” value ([4]; birinapant 30 mg/kg i.p. BIW 1 week pretreatment, then anti-PD-L1 10 mg/kg i.p. BIW (group 4)) was “singificant anti-cancer effect; also recorded: sensitizes MC38 tumors to a subsequent treatment with an anti-PD-L1 antibody” and the “anti-cancer effect (median tumor volume)” value ([4]; birinapant pretreatment, then anti-PD-L1 plus continued birinapant (group 5), compared with group 4) was “small additional benefit”. For the same compound, the “function of antigen-presenting cells (dendritic cell maturation, type-II to type-I macrophage conversion)” value (antigen-presenting cells) was “modulate the function of antigen-presenting cells”.
For “Nivolumab: fully human IgG4 anti-PD-1 monoclonal antibody from Bristol-Myers Squibb/Ono Pharmaceuticals”, the Objective response rate (melanoma) is given as 31%, the Overall survival (melanoma) is given as 16.8 months and the Objective response rate [5] is given as 17%. The Overall survival [5] was 9.9 months, the Objective response rate (RCC) was 20% and the Overall survival (RCC) was 22.4 months.
